Results on 42 compounds are retold here after ChEMBL document CHEMBL1140657, “SAR of a novel 'Anthranilamide Like' series of VEGFR-2, multi protein kinase inhibitors for the treatment of cancer” (Bioorg Med Chem Lett, 2007).

Where “and” joins values, the source holds several entries; their conditions need not be identical. Equal values may be shown once.

One may read the IC50 as the concentration at which inhibition is half-maximal. What is called inhibition in vivo is the share of the control response that was lost under treatment. A low value points to little suppression. As a reminder, the AUC(0-t) is exposure summed from dosing to a finite time, without extrapolation to infinity. The Cmax is the maximum level reached in the sampled fluid or tissue. The term AUC denotes concentration integrated over time. Low values mean low exposure, high ones high exposure.

In data set [1] the target is Mast/stem cell growth factor receptor Kit (Homo sapiens, UniProt P10721). The experiment in a line: Inhibition of human recombinant cKit by FRET assay.
Chain of Mast/stem cell growth factor receptor Kit (P10721 whole entry): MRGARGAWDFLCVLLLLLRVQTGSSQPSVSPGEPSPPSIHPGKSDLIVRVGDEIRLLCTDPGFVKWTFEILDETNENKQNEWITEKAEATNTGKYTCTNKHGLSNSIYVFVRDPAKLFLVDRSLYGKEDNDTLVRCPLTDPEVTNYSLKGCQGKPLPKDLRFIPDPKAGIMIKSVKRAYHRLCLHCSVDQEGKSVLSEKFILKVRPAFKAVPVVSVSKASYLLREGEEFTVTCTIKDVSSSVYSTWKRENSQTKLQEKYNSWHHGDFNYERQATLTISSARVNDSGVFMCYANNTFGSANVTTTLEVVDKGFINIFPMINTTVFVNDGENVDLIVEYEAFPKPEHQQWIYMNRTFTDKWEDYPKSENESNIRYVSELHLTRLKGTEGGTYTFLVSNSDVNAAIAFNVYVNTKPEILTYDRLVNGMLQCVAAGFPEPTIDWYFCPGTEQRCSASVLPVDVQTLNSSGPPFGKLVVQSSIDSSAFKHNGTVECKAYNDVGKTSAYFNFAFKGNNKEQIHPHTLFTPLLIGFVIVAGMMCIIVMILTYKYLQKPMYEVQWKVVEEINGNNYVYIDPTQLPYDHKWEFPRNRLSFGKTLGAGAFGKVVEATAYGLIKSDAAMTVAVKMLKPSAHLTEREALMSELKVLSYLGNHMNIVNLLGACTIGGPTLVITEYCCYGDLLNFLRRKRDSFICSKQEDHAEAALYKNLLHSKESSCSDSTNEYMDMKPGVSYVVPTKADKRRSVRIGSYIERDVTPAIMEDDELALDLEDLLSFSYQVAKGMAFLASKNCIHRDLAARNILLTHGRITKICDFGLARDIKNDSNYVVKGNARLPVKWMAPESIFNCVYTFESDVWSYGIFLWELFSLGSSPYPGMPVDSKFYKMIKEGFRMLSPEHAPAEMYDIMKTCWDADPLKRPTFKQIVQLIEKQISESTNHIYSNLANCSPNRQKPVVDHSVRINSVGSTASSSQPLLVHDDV
In data set [2] the target is Serine/threonine-protein kinase B-raf (Homo sapiens, UniProt P15056). Kind of data set: Inhibition of b-Raf.
Chain of Serine/threonine-protein kinase B-raf (P15056 whole entry): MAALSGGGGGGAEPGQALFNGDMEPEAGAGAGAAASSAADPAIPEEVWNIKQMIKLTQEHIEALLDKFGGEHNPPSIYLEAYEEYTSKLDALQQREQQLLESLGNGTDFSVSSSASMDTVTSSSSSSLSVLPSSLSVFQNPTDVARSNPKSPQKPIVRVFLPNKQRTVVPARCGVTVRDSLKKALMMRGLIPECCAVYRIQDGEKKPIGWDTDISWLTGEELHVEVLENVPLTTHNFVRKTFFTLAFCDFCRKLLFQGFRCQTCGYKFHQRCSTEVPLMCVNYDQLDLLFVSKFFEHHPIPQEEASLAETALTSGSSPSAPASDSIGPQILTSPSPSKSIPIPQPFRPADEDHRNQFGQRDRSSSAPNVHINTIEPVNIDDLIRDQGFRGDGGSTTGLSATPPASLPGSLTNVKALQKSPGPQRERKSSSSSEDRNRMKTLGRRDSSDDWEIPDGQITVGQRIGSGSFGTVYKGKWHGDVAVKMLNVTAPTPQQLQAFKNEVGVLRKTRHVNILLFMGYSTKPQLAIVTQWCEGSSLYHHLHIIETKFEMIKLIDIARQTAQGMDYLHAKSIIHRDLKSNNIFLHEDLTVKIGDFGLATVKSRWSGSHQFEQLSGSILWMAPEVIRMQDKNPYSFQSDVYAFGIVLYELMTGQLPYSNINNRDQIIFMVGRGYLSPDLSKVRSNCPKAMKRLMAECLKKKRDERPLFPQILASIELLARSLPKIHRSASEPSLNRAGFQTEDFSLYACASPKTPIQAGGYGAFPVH
The subject of the next data set is COLO 205. The experiment in a line: Inhibition of tumor growth in human Colo205 cells xenografted in athymic mouse at 50 mg/kg, po once daily after 9 days. The data set is classed as functional. Particulars: COLO 205, 216 h. Background: Xenograft models place foreign cells or tissue in a host animal.
Data set [3] in a line: AUC (1 to 5 hrs) in ICR mouse. Particulars: plasma. Set-up: time 1-5 hr. The data set is classed as ADME, organism-based.
Another data set relates to MDA-MB-231. The experiment in a line: Inhibition of tumor growth in human MDA-MB-231 cells xenografted in athymic mouse at 50 mg/kg, po once daily after 9 days. The data set is classed as functional. Particulars: MDA-MB-231, 216 h.
In data set [4] the target is Vascular endothelial growth factor receptor 2 (Homo sapiens, UniProt P35968). Kind of data set: Inhibition of VEGFR2.
Chain of Vascular endothelial growth factor receptor 2 (P35968 whole entry): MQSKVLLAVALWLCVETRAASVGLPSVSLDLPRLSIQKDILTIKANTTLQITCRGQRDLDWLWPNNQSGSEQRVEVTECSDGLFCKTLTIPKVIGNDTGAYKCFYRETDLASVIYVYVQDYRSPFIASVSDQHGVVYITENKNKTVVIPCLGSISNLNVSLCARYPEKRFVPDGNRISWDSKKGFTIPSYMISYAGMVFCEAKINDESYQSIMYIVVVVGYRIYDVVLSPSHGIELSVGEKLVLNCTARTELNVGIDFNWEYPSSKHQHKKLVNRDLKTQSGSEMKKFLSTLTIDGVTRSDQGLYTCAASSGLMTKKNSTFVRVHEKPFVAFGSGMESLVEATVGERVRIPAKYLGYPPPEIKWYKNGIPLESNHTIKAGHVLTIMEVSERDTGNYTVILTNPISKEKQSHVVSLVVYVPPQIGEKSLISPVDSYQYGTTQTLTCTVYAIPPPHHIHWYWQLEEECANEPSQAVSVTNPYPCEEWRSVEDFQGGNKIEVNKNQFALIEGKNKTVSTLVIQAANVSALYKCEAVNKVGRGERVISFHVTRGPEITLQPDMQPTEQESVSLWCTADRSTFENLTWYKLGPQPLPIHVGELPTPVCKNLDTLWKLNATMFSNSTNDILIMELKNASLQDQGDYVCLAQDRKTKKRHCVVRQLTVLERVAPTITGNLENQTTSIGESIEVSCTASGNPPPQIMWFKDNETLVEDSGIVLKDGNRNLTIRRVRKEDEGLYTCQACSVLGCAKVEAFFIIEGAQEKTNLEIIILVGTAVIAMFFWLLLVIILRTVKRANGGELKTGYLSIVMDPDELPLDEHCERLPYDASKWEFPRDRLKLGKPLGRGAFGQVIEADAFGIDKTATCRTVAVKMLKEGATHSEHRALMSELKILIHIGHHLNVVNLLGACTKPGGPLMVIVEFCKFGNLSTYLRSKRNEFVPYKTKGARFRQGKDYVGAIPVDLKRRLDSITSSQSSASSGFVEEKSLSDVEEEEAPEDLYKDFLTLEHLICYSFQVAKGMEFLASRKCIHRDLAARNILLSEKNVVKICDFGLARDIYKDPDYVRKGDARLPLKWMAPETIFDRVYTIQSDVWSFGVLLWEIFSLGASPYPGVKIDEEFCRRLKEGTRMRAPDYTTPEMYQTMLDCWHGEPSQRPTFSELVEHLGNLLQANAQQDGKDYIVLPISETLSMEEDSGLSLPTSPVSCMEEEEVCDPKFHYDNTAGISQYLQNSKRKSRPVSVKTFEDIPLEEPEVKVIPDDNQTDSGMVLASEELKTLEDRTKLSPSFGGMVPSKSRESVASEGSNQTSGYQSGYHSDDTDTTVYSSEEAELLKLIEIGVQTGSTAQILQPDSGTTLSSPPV
The nature of data set [5]: Volume of distribution at steady state in iv dosed ICR mouse. The data set is classed as ADME, organism-based. Particulars: in vivo, read-out: Vdss.
For a further data set, the system named is NCI-H460. The experiment in a line: Inhibition of tumor growth in human NCI-H460 NSCLC cells xenografted in athymic mouse at 50 mg/kg, po once daily after 9 days. The format is functional. Particulars: NCI-H460, 216 h.
Data set [6] is described as follows: Cmax in ICR mouse at 25 mg/kg. The data set is classed as ADME, organism-based. Set-up: dose 25 mg/kg. Particulars: in vivo.
The nature of data set [7]: Cmax in ICR mouse at 15 mg/kg. Particulars: in vivo. Also on record: dose 15 mg/kg. The format is ADME, organism-based.
A short description of data set [8]: AUC in ICR mouse at 25 mg/kg, po. Particulars: plasma. The data set is classed as ADME, organism-based. Set-up: dose 25 mg/kg, route oral.
Data set [9] in a line: AUC (0 to 5 hrs) in ICR mouse at 25 mg/kg, po. Particulars: plasma. The format is ADME, organism-based. Also on record: time < 4 hr, dose 25 mg/kg, route oral.

As for `CNC(=O)Nc1cc(CNc2ccccc2C(=O)Nc2ccc3c(c2)OC(F)(F)O3)ccn1`, the 50% inhibitory concentration (IC50) in data set [1] was found to be 5 nM; in [2], 24 nM.
On to `CCNC(=O)Nc1ccc(CNc2ncsc2C(=O)Nc2ccc3c(c2)OC(F)(F)O3)cn1`, for which the half-maximal inhibitory concentration (IC50) in data set [1] was 4 nM; in data set [4], 7 nM. Further, the inhibition in vivo at 50 mg/kg in the data set with COLO 205 was 86%; in the data set on MDA-MB-231 it was 92%; in the data set with NCI-H460, 79%. Also, the AUC(0-t) in [3] turned out to be 255 µM·h. In data set [5], the Vd turned out to be 0.24 L/kg. Further, the highest level in data set [6] (Cmax) was 64 µM.
Take `CNc1cc(CNc2ccccc2C(=O)Nc2ccc3c(c2)OC(F)(F)O3)ccn1`: the values for the IC50 in data set [1] and in data set [2] were 3 nM and 100 nM, respectively.
With `Nc1cc(CNc2ccccc2C(=O)Nc2ccc3c(c2)OC(F)(F)O3)ccn1`, the IC50 in [1] was 4 nM and 1 nM; in data set [2], 634 nM and 274 nM.
Take `O=C(NCc1ccccc1)Nc1cc(CNc2ccccc2C(=O)Nc2ccc3c(c2)OC(F)(F)O3)ccn1`: the results for the IC50 in data set [1] and in data set [2] were 48 nM and 232 nM, respectively.
For `COCCCNc1cc(CNc2ccccc2C(=O)Nc2ccc3c(c2)OC(F)(F)O3)ccn1` the same measures were 12 nM and 156 nM.
For `COCCNC(=O)c1cc(CNc2ccccc2C(=O)Nc2ccc3c(c2)OC(F)(F)O3)ccn1`, the results for the IC50 in [1] and in data set [2] were 38 nM and 497 nM, respectively.
For `O=C(Nc1ccc2c(c1)OC(F)(F)O2)c1ccccc1NCc1ccnc(NCCOCCO)c1` the same measures were 4 nM and 165 nM.
For the compound `CS(=O)(=O)Nc1cc(CNc2ccccc2C(=O)Nc2ccc3c(c2)OC(F)(F)O3)ccn1`, the half-inhibitory concentration (IC50) is 25 nM in data set [1] and 594 nM in [2].
Regarding `CNC(=O)Nc1ccc(CNc2c(C(=O)Nc3ccc(SC(F)(F)F)cc3)cnn2C)cn1`, the IC50 stood at 17 nM in data set [1], 154 nM in data set [2] and 62 nM in [4]. The compound further returned a peak concentration (Cmax) in [7] of 3.6 µM. This compound also registered an exposure AUC(0-t) in data set [3] of 11 µM·h.
Consider `O=C(NCCCN1CCOCC1)c1cc(CNc2ccccc2C(=O)Nc2ccc3c(c2)OC(F)(F)O3)ccn1`, for which the IC50 in data set [1] was found to be 45 nM; in data set [2], 6830 nM.
Regarding `CN(C)c1nccc(CNc2ccccc2C(=O)Nc2ccc3c(c2)OC(F)(F)O3)n1`, the results for the IC50 in data set [1] and in data set [2] were 50 nM and 349 nM, respectively.
With `CNC(=O)c1cc(CNc2ccccc2C(=O)Nc2ccc3c(c2)OC(F)(F)O3)ccn1`, the IC50 in [1] came out at 5 nM; in data set [2], 45 nM. In data set [8], the area under the curve (AUC) is 40 µM·h.
Consider `CNC(=O)c1cc(CNc2ccsc2C(=O)Nc2ccc3c(c2)OC(F)(F)O3)ccn1`, for which the results for the half-maximal inhibitory concentration (IC50) in data set [1] and in [2] were 3 nM and 61 nM, respectively.
As for `CCN(CC)CCCNC(=O)c1cc(CNc2ccccc2C(=O)Nc2ccc3c(c2)OC(F)(F)O3)ccn1`, the figures for the IC50 in data set [1] and in [2] were 42 nM and 175 nM, respectively.
`O=C(Nc1ccc2c(c1)OC(F)(F)O2)c1ccccc1NCc1ccnc(C2=NCCN2)c1`: the values for the concentration for half-maximal inhibition (IC50) in data set [1] and in data set [2] were 72 nM and 153 nM, respectively.
On to `O=C(Nc1ccc2c(c1)CCC2)Nc1cc(CNc2ccccc2C(=O)Nc2ccc3c(c2)OC(F)(F)O3)ccn1`, for which the IC50 in [1] amounted to 240 nM; in data set [2], 64 nM.
`CNC(=O)c1cc(CNc2ncsc2C(=O)Nc2ccc3c(c2)OC(F)(F)C(F)(F)O3)ccn1`: the IC50 in data set [1] turned out to be 12 nM; in [2], 192 nM.
As for `O=C(NC1CC1)c1cc(CNc2ccccc2C(=O)Nc2ccc3c(c2)OC(F)(F)O3)ccn1`, the IC50 in data set [1] is 16 nM; in [2], 192 nM.
Turning to `CCNC(=O)Nc1cc(CNc2ccccc2C(=O)Nc2ccc3c(c2)OC(F)(F)O3)ccn1`, the values for the IC50 in [1] and in data set [2] were 7 nM and 90 nM, respectively. Besides, the AUC(0-t) at 4 h in data set [9] is more than 400 µM·h.
As to `CNC(=O)c1cc(CNc2ncsc2C(=O)Nc2ccc3c(c2)OC(F)(F)O3)ccn1`, the 50% inhibitory concentration (IC50) was 25 nM in data set [1] and 1240 nM in data set [2].
For `O=C(Nc1ccc2c(c1)OC(F)(F)O2)c1ccccc1NCc1ccnc(NCCCn2ccnc2)c1` the same measures were 20 nM and 101 nM.
The corresponding values for `CCN(CC)CCNC(=O)c1cc(CNc2ccccc2C(=O)Nc2ccc3c(c2)OC(F)(F)O3)ccn1` are 58 nM and 138 nM.
For `NC(=O)c1cc(CNc2ccccc2C(=O)Nc2ccc3c(c2)OC(F)(F)O3)ccn1`, the IC50 in data set [1] came out at 2 nM; in data set [2], 34 nM.
For `CNC(=O)Nc1ccc(CNc2c(C(=O)Nc3ccc4c(c3)OC(F)(F)C(F)(F)O4)cnn2C)cn1`, the IC50 in [1] is 12 nM; in [4], 43 nM. The same compound displayed a Cmax in data set [7] of 6 µM. This compound yielded an AUC(0-t) in data set [3] of 19 µM·h.
Turning to `O=C(Nc1ccc2c(c1)OC(F)(F)C(F)(F)O2)c1ccccc1NCc1ccncc1`, the IC50 in [1] stood at 19 nM; in data set [2], 40 nM. Besides, the AUC in data set [8] came to 6 µM·h.
As to `CNc1nccc(CNc2ccccc2C(=O)Nc2ccc3c(c2)OC(F)(F)O3)n1`, the half-maximal inhibitory concentration (IC50) was 3 nM in [1] and 26 nM in [2].
The corresponding values for `NC(=S)c1cc(CNc2ccccc2C(=O)Nc2ccc3c(c2)OC(F)(F)O3)ccn1` are 27 nM and 100 nM.
For `CC(=O)Nc1cc(CNc2ccccc2C(=O)Nc2ccc3c(c2)OC(F)(F)O3)ccn1` the same measures were 1 nM and 5 nM.
The corresponding values for `O=C(Nc1ccc2c(c1)OC(F)(F)O2)c1ccccc1NCc1ccnc(NCCc2cnc[nH]2)c1` are 23 nM and 146 nM.
For the compound `COCCNc1cc(CNc2ccccc2C(=O)Nc2ccc3c(c2)OC(F)(F)O3)ccn1`, the 50% inhibitory concentration (IC50) in data set [1] was found to be 13 nM; in data set [2], 104 nM.
`CNC(=O)Nc1ccc(CNc2ncsc2C(=O)Nc2ccc3c(c2)OC(F)(F)O3)cn1`: the IC50 in data set [1] was 5 nM; in [4], 3 nM. The inhibition in vivo at 50 mg/kg in the data set on COLO 205 was 84%; in the data set on MDA-MB-231, 90%; in the data set on NCI-H460 it was 70%. In addition, the AUC(0-t) in [3] amounted to 538 µM·h. Further, the Vd in [5] was determined as 0.151 L/kg. Further, in [6], the Cmax worked out at 124 µM.
Consider `O=C(NCCO)c1cc(CNc2ccccc2C(=O)Nc2ccc3c(c2)OC(F)(F)O3)ccn1`, for which the half-inhibitory concentration (IC50) in data set [1] amounted to 18 nM; in [2], 397 nM.
For `CCNC(=O)c1cc(CNc2ccccc2C(=O)Nc2ccc3c(c2)OC(F)(F)O3)ccn1` the same measures were 25 nM and 333 nM.
For `N#Cc1cc(CNc2ccccc2C(=O)Nc2ccc3c(c2)OC(F)(F)O3)ccn1` the same measures were 37 nM and 110 nM.
The corresponding values for `COCCCNC(=O)c1cc(CNc2ccccc2C(=O)Nc2ccc3c(c2)OC(F)(F)O3)ccn1` are 19 nM and 1030 nM.
In the case of `O=C(Nc1ccc2c(c1)OC(F)(F)C(F)(F)O2)c1ncsc1NCc1ccncc1`, the IC50 in data set [1] was 95 nM; in data set [2], 2560 nM.
The corresponding values for `O=C(Nc1ccccc1)Nc1cc(CNc2ccccc2C(=O)Nc2ccc3c(c2)OC(F)(F)O3)ccn1` are 87 nM and 39 nM.
As for `CNC(=O)c1cc(CNc2c(C(=O)Nc3ccc4c(c3)OC(F)(F)O4)cnn2C)ccn1`, the results for the concentration for half-maximal inhibition (IC50) in [1] and in [2] were 11 nM and 199 nM, respectively.
For `CS(=O)(=O)CCNC(=O)c1cc(CNc2ccccc2C(=O)Nc2ccc3c(c2)OC(F)(F)O3)ccn1` the same measures were 17 nM and 221 nM.
Regarding `O=C(Nc1ccc2c(c1)OC(F)(F)O2)c1ccccc1NCc1ccnc(NCCCO)c1`, the half-inhibitory concentration (IC50) in [1] turned out to be 9 nM; in [2], 142 nM.
For `O=C(Nc1ccc2c(c1)OC(F)(F)O2)c1ccccc1NCc1ccnc(NCCO)c1` the same measures were 8 nM and 112 nM.
